One assay has as its target T1, Δ24-reductase (Homo sapiens, UniProt Q15392).
T1 construct: endogenous in cells; host or cells: HepG2
T1 sequence (Q15392 23-516): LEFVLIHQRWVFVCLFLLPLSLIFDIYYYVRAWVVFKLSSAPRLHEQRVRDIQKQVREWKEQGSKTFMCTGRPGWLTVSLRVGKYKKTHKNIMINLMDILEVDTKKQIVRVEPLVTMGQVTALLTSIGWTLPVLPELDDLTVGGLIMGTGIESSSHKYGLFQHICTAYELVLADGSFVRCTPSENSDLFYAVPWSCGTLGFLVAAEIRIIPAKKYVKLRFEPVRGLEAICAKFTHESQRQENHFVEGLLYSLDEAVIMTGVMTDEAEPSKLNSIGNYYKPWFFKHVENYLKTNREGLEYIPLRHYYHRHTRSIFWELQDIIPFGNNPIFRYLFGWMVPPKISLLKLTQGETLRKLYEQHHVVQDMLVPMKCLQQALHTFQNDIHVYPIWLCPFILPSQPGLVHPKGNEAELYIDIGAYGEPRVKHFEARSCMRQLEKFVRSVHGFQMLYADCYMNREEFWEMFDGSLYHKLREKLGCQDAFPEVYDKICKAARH
Description: Δ24-reductase assay (conversion of lanosterol to dihydrolanosterol in the presence of miconazole). The format is cell-based. To be noted: HepG2 cells; conversion of lanosterol to dihydrolanosterol with added miconazole. On the procedure:
HepG2 cells were incubated for 12 h with 10 µM simvastatin (a kind gift from M. Stapff (MSD, Germany)) to deplete cholesterol precursors. Thereafter, the medium was changed to one containing 10 µM simvastatin, 10 µM miconazole (an inhibitor of 14α-demethylation) and 6 µg/dish lanosterol. After 12 h incubation, neutral sterols were extracted as described above, and the samples were monitored for lanosterol (m/z 498 (M^+) and m/z 393 (M-TMSOH-CH3)) and dihydrolanosterol (m/z 500 (M^+) and m/z 395 (M-TMSOH-CH3)) by GC/MS. Dihydrolanosterol was quantified by comparing the ratio of SIM abundances at m/z 395 and 370 (epicoprostanol) against a standard curve constructed from SIM results on mixtures of authentic dihydrolanosterol and epicoprostanol. Desmosterol was quantified analogously by SIM.

The next assay concerns HepG2 cells. In words: Accumulation of cholesterol precursors / C29-sterols (MAS) in HepG2 cells, GC/MS (SIM). The format is cell-based, Human. To be noted: for Dienol (m/z 486) / Enol T-MAS (m/z 484) / Trienol FF-MAS (m/z 482) / suppression of the Δ24 reduction step (accumulation of desmosterol) / changes in the cholesterol precursor pattern / FF-MAS Dimethylst.-trien (482 m/z) / Methylst.-dien (470 m/z) / T-MAS Dimethylst.-dien (484 m/z): HepG2 cells; for Dienol (m/z 486) / Enol T-MAS (m/z 484) / Trienol FF-MAS (m/z 482): ± SD; for suppression of the Δ24 reduction step (accumulation of desmosterol): absence of miconazole, 10 µM potent inhibitors or 1 µM tamoxifen for 12 h; for changes in the cholesterol precursor pattern: at 10 µM, compared to potent inhibitors, data not shown; for FF-MAS Dimethylst.-trien (482 m/z) / Methylst.-dien (470 m/z) / T-MAS Dimethylst.-dien (484 m/z): bile acids 160 µM, 12-h, n=3, mean ± SD, ratio to internal standard epicoprostanol. On the procedure:
Human hepatoma HepG2 cells were cultured to confluency in 60-mm dishes in phenol-red-free Dulbecco's modified Eagle's medium (DMEM) containing Pen-Strep (100 µg/ml), glucose (10 mM), sodium bicarbonate (45 mM) and glutamine (4 mM) supplemented with 10% fetal calf serum as described previously (24). At the beginning of the experiment the medium was changed to serum-free DMEM supplemented with 10% lipid-free "controlled process serum replacement" (CPSR-1). Compounds were added from ethanolic stock solutions to produce final ethanol concentrations of 0.1-0.3% v/v. Controls received the same amount of ethanol. Aminotriazole was added in an aqueous solution. Slices of rat testis (25 µm; 25-50 mg wet weight) were incubated under the same conditions in a shaking water bath (37°C). For isotopomer spectral analysis (ISA) of lathosterol, 1-^13C-acetate was added in an aqueous solution to a final concentration of 1 mM.
(§1) Cells were washed three times with ice cold PBS (pH 7.4) (once with 2 mg/ml BSA and twice with PBS alone). Epicoprostanol (1 µg in 50 µl of hexane) was added as internal standard to each sample. Sterols were extracted in hexane/isopropanol (3:2 v/v; two times with 4 ml). After drying under nitrogen and alkaline hydrolysis (1 N NaOH in 80% ethanol, 1.5 h at 70°C), the sterols were extracted with cyclohexane (two times with 3 ml). After drying under nitrogen, sterols were converted to their trimethylsilyl (TMS) derivatives by adding 100 µl bis(trimethylsilyl)trifluoracetamide (Pierce)/n-decane (1:1; v/v) and heating for 1 h at 70°C in a conical glass tube. This solution (1-2 µl) was used for gas-chromatography/mass-spectrometry (GC/MS). Rat testes (0.05-0.15 g) were homogenized manually, and lipids were extracted in hexane/isopropanol (3:2 v/v; two times with 4 ml). The extracts were deproteinized with acetone (3 ml) and processed as described above. The observed sterol levels in testis were normalized to correspond to 0.1 g of tissue (wet weight).
(§2) Gas-chromatography was done in the splitless mode with temperature programming as follows: 150°C for 1 min, followed by 20°C/min up to 260°C and 10°C/min up to 280°C (hold for 15 min). Mass spectral data were collected either in the full-scan mode (m/z 50-550) or by selective ion monitoring (SIM). For SIM analyses the electron multiplier voltage was raised by 300 V after the elution of lathosterol to increase the sensitivity of detection for lanosterol, dihydrolanosterol, methylsterols, dimethylsterols and plant sterols. The internal standard epicoprostanol was monitored at m/z 370. […] Peak integration was performed manually, and sterols were quantified from SIM analyses against the internal standard. Unless stated otherwise, MAS amounts are given as a percentage of the control.

For the next assay, the system named is liver slices. In words: Influence of bile acids on methylsterols and dimethylsterols in liver slices. The format is cell-based. To be noted: bile acids 160 µM for 9-h, n=2 for UDCA, CDCA, DCA, n=3 for CA and LCA, ratio to campesterol. On the procedure: as §1, §2
[1] abbreviates: Conc. 10 µM (combinations 10 + 10 µM), 12 h, n=2.
The mark [2] stands for this setting: aminotriazole 20000 µM, tamoxifen 1 µM, combination 20000 + 1 µM, incubation time not clearly stated.

Consider `CC(=O)[C@@]1(O)CC[C@H]2[C@@H]3CC=C4C[C@@H](O)CC[C@]4(C)[C@H]3CC[C@@]21C` [17α-OH-Pregnenolone, 17α-Hydroxy-pregnenolone], for which, at Δ24-reductase, the “order of suppression of Δ24 reduction” value is recorded as “pregnenolone > progesterone > 17α-OH-pregnenolone >> 17α-OH-progesterone”. Moreover, in the assay on HepG2 cells (setting [1]), the “Dienol (m/z 486)” value is 52 ± 6 % of control, the “Enol T-MAS (m/z 484)” value is 780 ± 57 % of control and the “Trienol FF-MAS (m/z 482)” value was 242 ± 19 % of control. For the same molecule, in the assay on HepG2 cells, the “suppression of the Δ24 reduction step (accumulation of desmosterol)” value was “strongly suppressed”.
As for `C[C@]12CC[C@H]3[C@@H](CCC4=CC(=O)CC[C@@]43C)[C@@H]1CC[C@@H]2O` [testosterone, Testosterone], in the assay on HepG2 cells, the “changes in the cholesterol precursor pattern” value (“changes” for short) is reported as “only minor changes”.
On to `C[C@H](CCC(=O)O)[C@H]1CC[C@H]2[C@@H]3CC[C@@H]4C[C@H](O)CC[C@]4(C)[C@H]3C[C@H](O)[C@]12C` [DCA, Deoxycholic acid], for which, in the assay with liver slices, the “FF-MAS Dimethylst.-trien (482 m/z)” value is given as 103 % of control, the “Methylst.-dien (470 m/z)” value is 144 % of control and the “T-MAS Dimethylst.-dien (484 m/z)” value is recorded as 210 % of control. In the assay on HepG2 cells, the “FF-MAS Dimethylst.-trien (482 m/z)” value is reported as 226 ± 17 % of control, the “Methylst.-dien (470 m/z)” value is 211 ± 6 % of control and the “T-MAS Dimethylst.-dien (484 m/z)” value is given as 320 ± 32 % of control.
As to `C[C@]12CCC(=O)C=C1CC[C@@H]1[C@@H]2CC[C@]2(C)C(=O)CC[C@@H]12` [androstenedione, 4-Androsten-3,17-dione], the “changes” value in the assay with HepG2 cells is recorded as “only minor changes”.
Consider `Nc1nc[nH]n1` [Aminotriazole], for which, in the assay on HepG2 cells (setting [2]), the “Dienol (m/z 486)” value is 725 ± 65 % of control, the “Enol T-MAS (m/z 484)” value was 610 ± 20 % of control and the “Trienol FF-MAS (m/z 482)” value was 229 ± 18 % of control.
Consider Medroxyprogesterone, for which, in the assay on HepG2 cells (setting [1]), the “Dienol (m/z 486)” value is reported as 509 ± 50 % of control, the “Enol T-MAS (m/z 484)” value was 1181 ± 90 % of control and the “Trienol FF-MAS (m/z 482)” value is 227 ± 11 % of control.
Consider `C[C@]12CC[C@@H]3c4ccc(O)cc4CC[C@H]3[C@@H]1CC[C@@H]2O` [β-estradiol, 17β-Estradiol], for which the “changes” value in the assay on HepG2 cells is recorded as “only minor changes”. In the assay with HepG2 cells (β-estradiol 10 µM in combination with progesterone 10 µM), the “effect on the accumulation of cholesterol precursors observed with progesterone alone” value is reported as “did not alter”.
Consider `COc1ccc(CCN(C)CCCC(C#N)(c2ccc(OC)c(OC)c2)C(C)C)cc1OC` (centres unmarked) [Verapamil], for which, in the assay with HepG2 cells (setting [1]), the “Dienol (m/z 486)” value is given as 18 ± 4 % of control, the “Enol T-MAS (m/z 484)” value was 416 ± 79 % of control and the “Trienol FF-MAS (m/z 482)” value is on record as 498 ± 103 % of control.
Consider `C[C@H](CCC(=O)O)[C@H]1CC[C@H]2[C@@H]3[C@@H](O)C[C@@H]4C[C@H](O)CC[C@]4(C)[C@H]3CC[C@]12C` [UDCA, Ursodeoxycholic acid], for which, in the assay with liver slices, the “FF-MAS Dimethylst.-trien (482 m/z)” value is on record as 204 % of control, the “Methylst.-dien (470 m/z)” value is 235 % of control and the “T-MAS Dimethylst.-dien (484 m/z)” value is 633 % of control. Further, in the assay on HepG2 cells, the “FF-MAS Dimethylst.-trien (482 m/z)” value is listed as 309 ± 51 % of control, the “Methylst.-dien (470 m/z)” value is 509 ± 19 % of control and the “T-MAS Dimethylst.-dien (484 m/z)” value is given as 655 ± 84 % of control.
Take `C[C@H](CCC(=O)O)[C@H]1CC[C@H]2[C@@H]3[C@H](O)C[C@@H]4C[C@H](O)CC[C@]4(C)[C@H]3CC[C@]12C` [CDCA, Chenodeoxycholic acid]: in the assay on liver slices, the “FF-MAS Dimethylst.-trien (482 m/z)” value is given as 128 % of control, the “Methylst.-dien (470 m/z)” value was 181 % of control and the “T-MAS Dimethylst.-dien (484 m/z)” value is given as 296 % of control. In addition, in the assay with HepG2 cells, the “FF-MAS Dimethylst.-trien (482 m/z)” value is on record as 197 ± 10 % of control, the “Methylst.-dien (470 m/z)” value is listed as 187 ± 5 % of control and the “T-MAS Dimethylst.-dien (484 m/z)” value is on record as 234 ± 11 % of control.
Consider `CC/C(=C(\c1ccccc1)c1ccc(OCCN(C)C)cc1)c1ccccc1` [Tamoxifen], for which the “suppression of the Δ24 reduction step (accumulation of desmosterol)” value in the assay with HepG2 cells is “strongly suppressed”. Also, in the assay with HepG2 cells (setting [2]), the “Dienol (m/z 486)” value is recorded as 34 ± 3 % of control, the “Enol T-MAS (m/z 484)” value is listed as 617 ± 47 % of control and the “Trienol FF-MAS (m/z 482)” value is recorded as 297 ± 41 % of control.
Turning to `C[C@]12CC[C@H](O)CC1=CC[C@@H]1[C@@H]2CC[C@]2(C)C(=O)CC[C@@H]12` [dehydroepiandrosterone], the “changes” value in the assay with HepG2 cells is reported as “only minor changes”.
For the molecule `C[C@H](CCC(=O)O)[C@H]1CC[C@H]2[C@@H]3CC[C@@H]4C[C@H](O)CC[C@]4(C)[C@H]3CC[C@]12C` [LCA, Lithocholic acid], in the assay with liver slices, the “FF-MAS Dimethylst.-trien (482 m/z)” value is recorded as 91 % of control, the “Methylst.-dien (470 m/z)” value is on record as 67 % of control and the “T-MAS Dimethylst.-dien (484 m/z)” value is recorded as 172 % of control. Further, in the assay with HepG2 cells, the “FF-MAS Dimethylst.-trien (482 m/z)” value is listed as 453 ± 88 % of control, the “Methylst.-dien (470 m/z)” value was 459 ± 29 % of control and the “T-MAS Dimethylst.-dien (484 m/z)” value is on record as 744 ± 155 % of control.

The values above are taken from EP1216701A1, “Process to increase the concentration of meiosis-activating sterols (MAS) in the cholesterol synthesis and the use of potent inhibitors in the process” (Schering Aktiengesellschaft, priority 2000, dated 2002).
